Laboratory results reported in PubChem BioAssay (NCI).
Where “and” joins values, the source holds several entries; their conditions need not be identical. Equal values may be shown once.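 Five concentrations, 48 hours, 96-well plates. GI50 is the concentration that inhibits growth by half. Definition used: TGI = concentration required for complete inhibition of growth.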

Tests used:
Assay in all cases: NCI tumour cell line growth inhibition, 48 h
BT-549 breast = tested on: BT-549 breast
MDA-N = tested on: MDA-N
NCI/ADR-RES ovarian = tested on: NCI/ADR-RES ovarian
PC-3 prostate = tested on: PC-3 prostate
DMS 114 small cell lung = tested on: DMS 114 small cell lung
SNB-78 CNS = tested on: SNB-78 CNS
DMS 273 small cell lung = tested on: DMS 273 small cell lung
KM20L2 colon = tested on: KM20L2 colon
RXF-631 renal = tested on: RXF-631 renal
P388 leukemia = tested on: P388 leukemia
SN12K1 renal = tested on: SN12K1 renal

Structure (SMILES)	TGI (BT-549 breast)	TGI (MDA-N)	TGI (NCI/ADR-RES ovarian)	TGI (PC-3 prostate)	TGI (DMS 114 small cell lung) [µM]	TGI (SNB-78 CNS) [µM]	TGI (DMS 273 small cell lung) [µM]	TGI (KM20L2 colon) [µM]	TGI (RXF-631 renal) [µM]	also measured
CNC(=O)OCc1c(COC(=O)NC)c(-c2ccc(-c3ccccc3)cc2)n(C)c1C	7.11 µM	18.5 µM	12.6 µM	12.3 µM						
CN(C)Cc1cc(C(F)(F)F)ccc1C(O)(c1ccccc1)c1ccccc1		33.7 µM	30.4 µM	36 µM						
N#C/C(=C/c1cccc(Oc2ccccc2)c1)c1ccccc1					> 100	> 100				
O=C1COc2cc(NC(=S)Nc3ccccc3)ccc2N1					> 100	> 100	> 100	> 100	> 100	
O=C1C(=O)c2ccccc2C(O)=C1C(C1=C(O)c2ccccc2C(=O)C1=O)c1ccc(Cl)cc1	32.7 µM	3.74 µM	> 77.5 µM	57.7 µM						
NC1=NN(c2ccccc2)C(=O)C1C(=O)CCC(=O)Nc1cccc(Cl)c1 (stereo not given)					> 100	> 100	> 100	> 100		
CC(=O)Oc1cc2c(cc1OC(C)=O)C1(C)CCC2(C)c2cc(OC(C)=O)c(OC(C)=O)cc21						> 100	> 100	79.5	> 100	
Cc1cn(C2CC(OC(=O)c3ccc(Cl)cc3)C(COC(=O)c3ccc(Cl)cc3)O2)c(=O)[nH]c1=O (stereo not given)	> 100 µM	> 100 µM	> 100 µM	> 100 µM						
COc1ccc2nc3cc(Cl)ccc3c(Sc3ccc([N+](=O)[O-])cc3C)c2c1					> 100	> 100	> 100	> 100		
O=C(Nc1ccc(C(F)(F)F)cc1[N+](=O)[O-])C(=O)C1NC(=S)NC1=O (stereo not given)					> 100	> 100	> 100	> 100	> 100	
C[C@]12CC=CC(=O)[C@@]1(C)CCC(=O)C2					> 100	> 100	> 100		> 100	
CC(=O)C1C(c2ccccc2)C2(C)OC(=O)C(C#N)C12C (stereo not given)					> 100	> 100	> 100	> 100		
CC(=O)c1ccc(NC(=O)/C(CC(=O)c2sc(-c3cccnc3)nc2C)=N/NC(N)=O)cc1					> 100	> 100		> 100		
O=S(=O)(C1=CC(S(=O)(=O)c2ccccc2)CN(Cc2ccccc2)C1c1cccc2ccccc12)c1ccccc1 (stereo not given)					> 69	> 69	> 69	> 69	> 69	
CCOC1C(Br)Cn2c(=O)c3cc4ccccc4cc3c(=O)n2C1C (stereo not given)					> 100	> 100	> 100	> 100		
C=C(C)C1CC2(C)C(C)CC(O)CC2C(OC(=O)C=C(C)C)C1O (stereo not given)	> 100 µM	> 100 µM	> 100 µM	> 100 µM						
CN(C)CCC(=O)N1C/C(=C\c2ccc(Cl)c(Cl)c2)C(=O)/C(=C/c2ccc(Cl)c(Cl)c2)C1	1.7 µM	0.84 µM	1.06 µM	0.398 µM		1.66	0.316	1.59		
CCCCCCCCCCCCCCCCCCOC[C@H](COP(=O)(O)O[C@H]1[C@H](O)[C@@H](O)[C@H](O)C[C@H]1O)OC	> 100 µM and 30.4 µM	> 100 µM and 25.4 µM	> 100 µM and 33.5 µM	43.3 µM and 14.1 µM						GI50 (BT-549 breast): > 100 µM and 15.9 µM; GI50 (MDA-N): 64.1 µM and 12 µM; GI50 (NCI/ADR-RES ovarian): > 100 µM and 18.3 µM; GI50 (PC-3 prostate): 7.44 µM and 2.94 µM
NC(CCCC(N)P(=O)(O)O)P(=O)(O)O (stereo not given)					> 100	> 100	> 100		> 100	
CCCCCCCCCCCCCP(=O)(O)O					> 100	> 100	> 100	> 100	> 100	
OCC12C=CC(C1)c1ccccc12 (stereo not given)					> 100		> 100	> 100	> 100	
CCN1CCCc2cc3c(C(F)(F)F)cc(=O)oc3cc21	> 100 µM	> 100 µM		93.1 µM						
N[C@H](C(=O)O)[C@@H]1CC(Cl)=NO1	> 1000 µM	> 1000 µM	530 µM	> 1000 µM	258	> 978	328	> 1000		GI50 (BT-549 breast): 7.4 µM; GI50 (MDA-N): 57.2 µM; GI50 (NCI/ADR-RES ovarian): 37.7 µM; TGI (P388 leukemia): 16 µM; GI50 (PC-3 prostate): 11.5 µM; TGI (SN12K1 renal): > 1000 µM
C=CC[P@]1(=O)O[C@H](c2ccccc2)[C@H](C)N1C					> 100	> 100	> 100			
Cc1cc(N(CC(C)Br)CC(C)Br)ccc1N=Nc1ccccc1C(=O)O (stereo not given)	26.5 µM	20.5 µM	> 100 µM	30 µM	11.1	40.2	20.5	24.2		
CC(C)C(O)(C(C)C)C(C)C	> 100 µM	> 100 µM	> 100 µM	> 100 µM						
CCC1=CCN(c2cc(C)ccn2)OC1c1ccc(OC)cc1 (stereo not given)					91.6			> 100	> 100	
COc1ccc([C@@]2(O)c3c(ccc(O)c3OC)[C@H]2OC)c(OC)c1					75.9			> 100		
CC(=O)Oc1c(C)c(-c2ccccc2)c(C)c(-c2ccccc2)c1C(=S)c1ccccc1						> 100		> 100	> 100	
COc1ccc(C(C#N)NC23CC4CC(CC(C4)C2)C3)cc1 (stereo not given)	> 100 µM	> 100 µM	> 100 µM	> 100 µM						
